Assay results reported in the NIST ThermoML archive (doi:10.1016/j.jct.2016.10.034).

Experiments:
[1] = for viscosity / mass density: 100 kPa, Liquid; for viscosity: Falling or rolling sphere viscometry; for mass density: Vibrating tube method; for Glass transition temperature: DSC
[2] = xn = mol fraction of the nth substance listed; conditions: 100 kPa, Liquid, x2 = 0; for viscosity: Falling or rolling sphere viscometry; for mass density: Vibrating tube method

CC[N+]1(C)CCCC1.O=C([O-])CO [1-ethyl-1-methylpyrrolidinium glycolate]
[1]
Conditions	mass density [kg/m3]	viscosity [mPa·s]
298.15 K	1134	345
303.15 K	1130.7	254
308.15 K	1127.3	192
313.15 K	1124	151
318.15 K	1120.8	116
323.15 K	1117.6	92.2
328.15 K	1114.4	76.9
333.15 K	1111.2	60.6
338.15 K	1108.1	49.6
343.15 K	1105	41.2
348.15 K	1101.9	34.2

Conditions	Glass transition temperature [°C]
[1]	-80

O [water] + CC[N+]1(C)CCOCC1.O=C([O-])CO
[2]
Conditions	mass density [kg/m3]	viscosity [mPa·s]
298.15 K	–	0.89
303.15 K	–	0.797
308.15 K	–	0.719
313.15 K	–	0.653
318.15 K	–	0.596
323.15 K	987.9	0.547
328.15 K	985.7	0.504
333.15 K	983.2	0.466
338.15 K	980.3	0.433
343.15 K	978.1	0.404
348.15 K	974.8	0.378

O [water] + CC[N+]1(C)CCCC1.O=C([O-])CO
[2]
Conditions	mass density [kg/m3]	viscosity [mPa·s]
298.15 K	–	0.89
303.15 K	–	0.797
308.15 K	–	0.719
313.15 K	–	0.653
318.15 K	–	0.596
323.15 K	987.9	0.547
328.15 K	985.7	0.504
333.15 K	983.2	0.466
338.15 K	980.3	0.433
343.15 K	978.1	0.404
348.15 K	974.8	0.378

CC(=O)[O-].CC[N+]1(C)CCCC1 [1-ethyl-1-methylpyrrolidinium acetate]
[1]
Conditions	mass density [kg/m3]	viscosity [mPa·s]
298.15 K	1064.5	240
303.15 K	1061.8	184
308.15 K	1058.7	145
313.15 K	1055.9	117
318.15 K	1053.1	93.4
323.15 K	1050.3	74
328.15 K	1047.4	60
333.15 K	1044.4	49.2
338.15 K	1041.8	39.4
343.15 K	1038.8	32.4
348.15 K	1035.9	26

Conditions	Glass transition temperature [°C]
[1]	-88

CC[N+]1(C)CCOCC1.O=C([O-])CO [N-ethyl-N-methylmorpholinium glycolate]
[1]
Conditions	mass density [kg/m3]	viscosity [mPa·s]
298.15 K	1232.6	–
303.15 K	1229.5	–
308.15 K	1226.3	–
313.15 K	1223	–
318.15 K	1219.8	2500
323.15 K	1216.5	1799
328.15 K	1213.3	1155
333.15 K	1210.1	854
338.15 K	1207.2	666
343.15 K	1204.1	488
348.15 K	1201.1	363

Conditions	Glass transition temperature [°C]
[1]	-59

O [water] + CC(=O)[O-].CC[N+]1(C)CCCC1
[2]
Conditions	mass density [kg/m3]	viscosity [mPa·s]
298.15 K	–	0.89
303.15 K	–	0.797
308.15 K	–	0.719
313.15 K	–	0.653
318.15 K	–	0.596
323.15 K	987.9	0.547
328.15 K	985.7	0.504
333.15 K	983.2	0.466
338.15 K	980.3	0.433
343.15 K	978.1	0.404
348.15 K	974.8	0.378
